# Reference: patent US20260242418A1, “CYCLIC PEPTIDES WITH ANTIBACTERIAL ACTIVITY AGAINST MULTIDRUG RESISTANT (MDR) PATHOGENS” (priority 2022, published 2026)
# Legend:
# Pseudomonas aeruginosa = format: cell-based
# Description: (§1) Minimum Inhibitory Concentration (MIC) of a peptide of SEQ D NO: 4 (abbreviated PLP-3) and colistin against a collection of clinically relevant and commercially available bacterial strains was obtained via broth microdilution. The protocol for antimicrobial activity determination, detailed below, consisted in a modification of Clinical & Laboratory Standards Institute (CLSI) Guidelines.
# (§2) MIC is the value defined as the lowest concentration of an antimicrobial, in these tests either PLP-3 or colistin, which inhibits the macroscopic growth of a bacterial strain after 18-22 h incubation at 37° C. The results from these assays are obtained via visual identification of the bacterial bottom at the end of the wells of the testing plate. Since the wells contain decreasing concentrations of the compounds, the final result is indicated as a concentration, MIC, expressed in μg/mL of the agent (in this case PLP-3 or colistin).
# (§3) Bacterial strains were streaked in Columbia Agar plates (Columbia Agar with 5% Sheep Blood 90 mm Stacker plates, BD) and incubated overnight at 37° C. Polypropylene round bottomed 96-well plates were filled with 50 μL/well of Mueller-Hinton Broth (MHB, CM0405, 500 g, ThermoFisher Scientific™ Oxoid™) and 50 μL of either colistin or PLP-3 (at 4× the chosen initial concentration of the test) were added to the first well of each row of the plate followed by serial dilutions up until the 10th column of the plate.
# (§4) Finally, strain inoculums were prepared by diluting 1:100 0.5 McFarland solutions in MHB. Plates were then inoculated with 50 μL of the inoculums and covered with film before 18 to 22 h incubation at 37 C.
# (§5) Three biological and three technical replicates were performed per strain.
# (§6) Broth microdilution testing of 15 strains of each species provided MIC50 and […] values (Table 4). Strains were either from clinical origin, relevant to current clinical situation, or commercially available strains belonging to the American Type Culture Collection (ATCC), namely: A. baumannii 17978 and 19606, K. pneumoniae 13883 and P. aeruginosa 27853.
# (§7) This panel represents an example of relevant MDR, colistin resistant and colistin susceptible strains from which to compare results. The minimum inhibitory concentration (MIC) is the lowest concentration of a chemical, usually a drug, which prevents visible growth of a bacterium or bacteria. MIC50 represents the antimicrobial concentration value that inhibits the growth of 50% of the bacterial strains and […] of each species from the tested panel of strains. Being colistin both a peptide and a last-resource antibiotic, it was included in these assays for comparison against a commercially available antibiotic.
# P. aeruginosa ATCC 27853 strain (commercially available from the American Type Collection Culture) was used as control by performing MICs to colistin and PLP-3 in all broth microdilution assays
# A. baumannii ATCC 19606 = experiment: Time-kill curves; format: cell-based, Acinetobacter baumannii
# Description: (§8) Time-kill curves (TKC) determine the in vitro antimicrobial activity of a compound, monitoring the bacterial growth over a certain period of time.
# (§9) This assay was performed for two Acinetobacter baumannii strains (a clinical strain and ATCC 19606 strain) and one Pseudomonas aeruginosa ATCC 27853 strain, monitoring its growth during 24 hours at different PLP-3 (SEQ ID NO: 4) concentrations: MIC, 2×MIC, 4×MIC, 8×MIC. Moreover, in each TKC assay a negative and a positive growth control was stablished.
# (§10) In different 13MI tubes, a certain concentration of PLP-3 peptide, Mueller-Hinton Broth (MHB, 1214, Condalab) and a fixed inoculum concentration were added. The final inoculum concentration in each tube was […]. Tubes were incubated at 37° C. at 180 rpm during 24 hours. Aliquots of the liquid culture were taken at different times: 0 h, 10 minutes, 30 minutes, 1 h, 2 h, 4 h, 8 h and 24 h. For each taken aliquot, serial dilutions with Phosphate Saline Buffer 1× (PBS 1×) were made and streaked in Luria-Bertani Agar (LB, 1083, Condalab). LB Agar plates were incubated at 37° C. during 18-22 hours. Grown colonies in LB Agar were counted in order to quantify the inoculum in each time period.
# (§11) Three biological replicates were performed for each strain, and the mean and standard deviation was determined each time.
# [1] = system: A. baumannii 8 clinical strain; experiment: Time-kill curves; format: cell-based, Acinetobacter baumannii
# Description: as §8, §9, §10, §11
# Acinetobacter baumannii = format: cell-based
# Description: as §1, §2, §3, §4, §5, §6, §7
# Klebsiella pneumoniae = format: cell-based
# Description: as §1, §2, §3, §4, §5, §6, §7
# [2] = panel of 15 P. aeruginosa strains
# [3] = time-kill curves over 24 hours, MIC to 8xMIC
# [4] = panel of 15 A. baumannii strains
# [5] = panel of 15 K. pneumoniae strains
structure (smiles),measurement,setting,value
"CC(C)C[C@@H]1NC(=O)[C@H](CCCNC(=N)N)NC(=O)[C@H](CCCNC(=N)N)NC(=O)[C@H](CCCNC(=N)N)NC(=O)[C@H]2CCCN2C(=O)[C@H](CCCNC(=N)N)NC(=O)[C@H](CCCNC(=N)N)NC(=O)[C@H](C(C)C)NC(=O)[C@@H]2CSSC[C@H](NC1=O)C(=O)N[C@@H](Cc1ccccc1)C(=O)N[C@@H](C(C)C)C(=O)N[C@@H](CCCNC(=N)N)C(=O)N1CCC[C@@H]1C(=O)N[C@@H](CCCCN)C(=O)N[C@@H](Cc1ccccc1)C(=O)N[C@@H](C(C)C)C(=O)N[C@@H](C(C)C)C(=O)N2 [PLP-3, cyclo[RRRLCFVRPKFVVCVRRP]]",MIC range,Pseudomonas aeruginosa,1 to 8 µg/mL
same,MIC50,Pseudomonas aeruginosa; [2],4 µg/mL
same,MIC90,Pseudomonas aeruginosa; [2],8 µg/mL
same,log(CFU/mL) Mean,"A. baumannii ATCC 19606; 2xMIC (4 μg/mL), 0.00 h",5.87 log(CFU/mL)
same,log(CFU/mL) Mean,"A. baumannii ATCC 19606; 2xMIC (4 μg/mL), 0.17 h",5.54 log(CFU/mL)
same,log(CFU/mL) Mean,"A. baumannii ATCC 19606; 2xMIC (4 μg/mL), 0.50 h",4.91 log(CFU/mL)
same,log(CFU/mL) Mean,"A. baumannii ATCC 19606; 2xMIC (4 μg/mL), 1.00 h",3.14 log(CFU/mL)
same,log(CFU/mL) Mean,"A. baumannii ATCC 19606; 2xMIC (4 μg/mL), 2.00 h",2.18 log(CFU/mL)
same,log(CFU/mL) Mean,"A. baumannii ATCC 19606; 2xMIC (4 μg/mL), 4.00 h",2.58 log(CFU/mL)
same,log(CFU/mL) Mean,"A. baumannii ATCC 19606; 2xMIC (4 μg/mL), 8.00 h",2.56 log(CFU/mL)
same,log(CFU/mL) Mean,"A. baumannii ATCC 19606; 2xMIC (4 μg/mL), 24.00 h",3.30 log(CFU/mL)
same,log(CFU/mL) Mean,"A. baumannii ATCC 19606; 4xMIC (8 μg/mL), 0.00 h",5.87 log(CFU/mL)
same,log(CFU/mL) Mean,"A. baumannii ATCC 19606; 4xMIC (8 μg/mL), 0.17 h",5.12 log(CFU/mL)
same,log(CFU/mL) Mean,"A. baumannii ATCC 19606; 4xMIC (8 μg/mL), 0.50 h",3.79 log(CFU/mL)
same,log(CFU/mL) Mean,"A. baumannii ATCC 19606; 4xMIC (8 μg/mL), 1.00 h",0.94 log(CFU/mL)
same,log(CFU/mL) Mean,"A. baumannii ATCC 19606; 4xMIC (8 μg/mL), 2.00 h",0.00 log(CFU/mL)
same,log(CFU/mL) Mean,"A. baumannii ATCC 19606; 4xMIC (8 μg/mL), 4.00 h",0.00 log(CFU/mL)
same,log(CFU/mL) Mean,"A. baumannii ATCC 19606; 4xMIC (8 μg/mL), 8.00 h",0.00 log(CFU/mL)
same,log(CFU/mL) Mean,"A. baumannii ATCC 19606; 4xMIC (8 μg/mL), 24.00 h",0.00 log(CFU/mL)
same,log(CFU/mL) Mean,"A. baumannii ATCC 19606; 8xMIC (16 μg/mL), 0.00 h",5.87 log(CFU/mL)
same,log(CFU/mL) Mean,"A. baumannii ATCC 19606; 8xMIC (16 μg/mL), 0.17 h",3.41 log(CFU/mL)
same,log(CFU/mL) Mean,"A. baumannii ATCC 19606; 8xMIC (16 μg/mL), 0.50 h",0.87 log(CFU/mL)
same,log(CFU/mL) Mean,"A. baumannii ATCC 19606; 8xMIC (16 μg/mL), 1.00 h",0.00 log(CFU/mL)
same,log(CFU/mL) Mean,"A. baumannii ATCC 19606; 8xMIC (16 μg/mL), 2.00 h",0.00 log(CFU/mL)
same,log(CFU/mL) Mean,"A. baumannii ATCC 19606; 8xMIC (16 μg/mL), 4.00 h",0.00 log(CFU/mL)
same,log(CFU/mL) Mean,"A. baumannii ATCC 19606; 8xMIC (16 μg/mL), 8.00 h",0.00 log(CFU/mL)
same,log(CFU/mL) Mean,"A. baumannii ATCC 19606; 8xMIC (16 μg/mL), 24.00 h",0.00 log(CFU/mL)
same,log(CFU/mL) Mean,"A. baumannii ATCC 19606; MIC (2 μg/mL), 0.00 h",5.87 log(CFU/mL)
same,log(CFU/mL) Mean,"A. baumannii ATCC 19606; MIC (2 μg/mL), 0.17 h",5.85 log(CFU/mL)
same,log(CFU/mL) Mean,"A. baumannii ATCC 19606; MIC (2 μg/mL), 0.50 h",5.43 log(CFU/mL)
same,log(CFU/mL) Mean,"A. baumannii ATCC 19606; MIC (2 μg/mL), 1.00 h",4.01 log(CFU/mL)
same,log(CFU/mL) Mean,"A. baumannii ATCC 19606; MIC (2 μg/mL), 2.00 h",2.39 log(CFU/mL)
same,log(CFU/mL) Mean,"A. baumannii ATCC 19606; MIC (2 μg/mL), 4.00 h",3.05 log(CFU/mL)
same,log(CFU/mL) Mean,"A. baumannii ATCC 19606; MIC (2 μg/mL), 8.00 h",3.85 log(CFU/mL)
same,log(CFU/mL) Mean,"A. baumannii ATCC 19606; MIC (2 μg/mL), 24.00 h",5.17 log(CFU/mL)
same,bactericidal or bacteriostatic activity,A. baumannii ATCC 19606; [3],bactericidal effect
same,log(CFU/mL) Mean,"[1]; 2xMIC (4 μg/mL), 0.00 h",5.60 log(CFU/mL)
same,log(CFU/mL) Mean,"[1]; 2xMIC (4 μg/mL), 0.17 h",5.56 log(CFU/mL)
same,log(CFU/mL) Mean,"[1]; 2xMIC (4 μg/mL), 0.50 h",4.92 log(CFU/mL)
same,log(CFU/mL) Mean,"[1]; 2xMIC (4 μg/mL), 1.00 h",4.20 log(CFU/mL)
same,log(CFU/mL) Mean,"[1]; 2xMIC (4 μg/mL), 2.00 h",2.74 log(CFU/mL)
same,log(CFU/mL) Mean,"[1]; 2xMIC (4 μg/mL), 4.00 h",1.89 log(CFU/mL)
same,log(CFU/mL) Mean,"[1]; 2xMIC (4 μg/mL), 8.00 h",1.05 log(CFU/mL)
same,log(CFU/mL) Mean,"[1]; 2xMIC (4 μg/mL), 24.00 h",1.49 log(CFU/mL)
same,log(CFU/mL) Mean,"[1]; 4xMIC (8 μg/mL), 0.00 h",5.60 log(CFU/mL)
same,log(CFU/mL) Mean,"[1]; 4xMIC (8 μg/mL), 0.17 h",5.30 log(CFU/mL)
same,log(CFU/mL) Mean,"[1]; 4xMIC (8 μg/mL), 0.50 h",4.11 log(CFU/mL)
same,log(CFU/mL) Mean,"[1]; 4xMIC (8 μg/mL), 1.00 h",2.74 log(CFU/mL)
same,log(CFU/mL) Mean,"[1]; 4xMIC (8 μg/mL), 2.00 h",0.00 log(CFU/mL)
same,log(CFU/mL) Mean,"[1]; 4xMIC (8 μg/mL), 4.00 h",0.00 log(CFU/mL)
same,log(CFU/mL) Mean,"[1]; 4xMIC (8 μg/mL), 8.00 h",0.00 log(CFU/mL)
same,log(CFU/mL) Mean,"[1]; 4xMIC (8 μg/mL), 24.00 h",0.00 log(CFU/mL)
same,log(CFU/mL) Mean,"[1]; 8xMIC (16 μg/mL), 0.00 h",5.60 log(CFU/mL)
same,log(CFU/mL) Mean,"[1]; 8xMIC (16 μg/mL), 0.17 h",4.45 log(CFU/mL)
same,log(CFU/mL) Mean,"[1]; 8xMIC (16 μg/mL), 0.50 h",0.00 log(CFU/mL)
same,log(CFU/mL) Mean,"[1]; 8xMIC (16 μg/mL), 1.00 h",0.00 log(CFU/mL)
same,log(CFU/mL) Mean,"[1]; 8xMIC (16 μg/mL), 2.00 h",0.00 log(CFU/mL)
same,log(CFU/mL) Mean,"[1]; 8xMIC (16 μg/mL), 4.00 h",0.00 log(CFU/mL)
same,log(CFU/mL) Mean,"[1]; 8xMIC (16 μg/mL), 8.00 h",0.00 log(CFU/mL)
same,log(CFU/mL) Mean,"[1]; 8xMIC (16 μg/mL), 24.00 h",0.00 log(CFU/mL)
same,log(CFU/mL) Mean,"[1]; MIC (2 μg/mL), 0.00 h",5.60 log(CFU/mL)
same,log(CFU/mL) Mean,"[1]; MIC (2 μg/mL), 0.17 h",5.63 log(CFU/mL)
same,log(CFU/mL) Mean,"[1]; MIC (2 μg/mL), 0.50 h",5.18 log(CFU/mL)
same,log(CFU/mL) Mean,"[1]; MIC (2 μg/mL), 1.00 h",4.55 log(CFU/mL)
same,log(CFU/mL) Mean,"[1]; MIC (2 μg/mL), 2.00 h",3.56 log(CFU/mL)
same,log(CFU/mL) Mean,"[1]; MIC (2 μg/mL), 4.00 h",2.54 log(CFU/mL)
same,log(CFU/mL) Mean,"[1]; MIC (2 μg/mL), 8.00 h",2.90 log(CFU/mL)
same,log(CFU/mL) Mean,"[1]; MIC (2 μg/mL), 24.00 h",4.67 log(CFU/mL)
same,bactericidal or bacteriostatic activity,[1]; [3],bactericidal effect
same,Range of MICs,Acinetobacter baumannii,1 to 2 µg/mL
same,MIC50,Acinetobacter baumannii; [4],1 µg/mL
same,MIC90,Acinetobacter baumannii; [4],2 µg/mL
same,MIC range,Klebsiella pneumoniae,2 to 32 µg/mL
same,MIC50,Klebsiella pneumoniae; [5],4 µg/mL
same,MIC90,Klebsiella pneumoniae; [5],16 µg/mL
